The source of these data is doi:10.1101/2024.08.19.608619, “Discovery of potent SARS-CoV-2 nsp3 macrodomain inhibitors uncovers lack of translation to cellular antiviral response” (bioRxiv, 2024).

The target of this assay is HiBiT-tagged nsp3-mac1 in HEK293 cells (Severe acute respiratory syndrome coronavirus 2, UniProt P0DTD1). In words: HiBiT Cellular Thermal Shift Assay / isothermal dose response thermal shift assay (ITDRF CETSA). In kind it is cell-based, SARS-CoV-2. The note with it: fixed temperature 50.6°C. As to the method:
A PCR product encoding SARS Cov-2 macrodomain residues 2 to 176 was cloned into the XhoI and BamHI restriction sites of the pBIT3.1-N vector (Promega) which has an N-terminal 11 amino acid HiBiT tag.
A PCR product encoding SARS Cov-2 macrodomain residues 1 to 176 was cloned into the HindIII and XhoI restriction sites of the pBIT3.1-C vector(Promega) which has an C-terminal 11 amino acid HiBiT tag.
Both constructs were evaluated for CETSA experiments and found to give similar results. For the results described the CHIBIT tag was used.
HiBiT Cellular Thermal Shift Assay (HiBiT-CETSA). To assess the engagement of nsp3-mac1 in intact cells, a HiBiT Cellular Thermal Shift Assay was conducted as described by Ramachandran et al. ([23]). The Nano-Glo HiBiT lytic detection system (Promega) was used according to the manufacturer’s instructions. Briefly, HEK293 cells were reverse-transfected with HiBiT-tagged nsp3-mac1 at a concentration of 400,000 cells/mL using the FuGENE transfection reagent (Promega). Following a 24-hour incubation period, the cells were trypsinized and resuspended in assay medium at the same concentration.
For CETSA, the cells were divided into two groups: one treated with 30 μM of the compounds and the other with DMSO as a control. […] The luminescence signals were measured using a PHERAstar FSX and analyzed with GraphPad Prism software (v.9 or v.10).
(In general: With HiBiT, luminescence reflects the tagged protein that the partner subunit can reach.)

A word on the EC50: it is the concentration needed to bring the measured effect to its halfway point. In the case of `Cc1nn(C)cc1-c1cc2c(NC(c3ccc4c(c3)S(=O)(=O)CCC4)C(C)C)ncnc2[nH]1` (stereo not shown) [ASAP-0011446], the EC50 is 0.014 µM.
